Columns and labels:
[1] = target: G. stearothermophilus glyceraldehyde-3-phosphate dehydrogenase (GsGap, gapDH WT), wild type, SEQ ID NO:6 (Geobacillus stearothermophilus, UniProt P00362); assay: Kinetics and cofactor specificity of wild type GsGap (gapDH WT); conditions: cofactor, 50 mM tris pH 7.5, 340 nm
[2] = target: G. stearothermophilus glyceraldehyde-3-phosphate dehydrogenase (GsGap) mutant mGapDH (mGap, gapDH M6), D34A/L35R/T36K relative to SEQ ID NO:6 (Geobacillus stearothermophilus, UniProt P00362, D34A/L35R/T36K); assay: Kinetics and cofactor specificity of triple mutant mGap (mGapDH); format: biochemical, G. stearothermophilus ATCC12980; conditions: 50 mM tris pH 7.5, 340 nm
Sequence of G. stearothermophilus glyceraldehyde-3-phosphate dehydrogenase (GsGap) mutant mGapDH (mGap, gapDH M6), D34A/L35R/T36K relative to SEQ ID NO:6 (P00362 whole entry D34A/L35R/T36K): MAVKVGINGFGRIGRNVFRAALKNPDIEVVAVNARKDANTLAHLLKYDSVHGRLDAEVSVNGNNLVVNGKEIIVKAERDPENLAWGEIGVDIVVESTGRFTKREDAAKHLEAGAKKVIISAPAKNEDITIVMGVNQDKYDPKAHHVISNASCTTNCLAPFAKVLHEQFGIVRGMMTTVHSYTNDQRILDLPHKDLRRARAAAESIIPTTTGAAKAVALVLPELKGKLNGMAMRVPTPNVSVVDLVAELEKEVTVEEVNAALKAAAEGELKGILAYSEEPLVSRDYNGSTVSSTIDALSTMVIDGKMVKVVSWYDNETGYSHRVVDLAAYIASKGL
Description: Enzyme activity and optimization. All of the enzymes used in this work were assayed. The enzymes were assayed in 50 mM tris buffer pH 7.5, 5 mM MgCl, and 5 mM KCl which mirrors the final reaction conditions. The activity of NAD(P)H producing or consuming reactions were monitored at 340 nm. The activity of ATP consuming enzymes were monitored using a coupled assay with Zwf and NADP^+ at 340 nm.
To implement the “molecular rheostat” module, GapDH enzyme was engineered that efficiently uses NADP^+. […] Although the cofactor specificity of GsGap has adjusted before by sequence-based design, the mutant only slightly preferred NADP^+ over NAD^+. To more strongly flip the cofactor specificity of GsGap the crystal structure was examined and basic residues introduced into the loop region proximate to the 2′OH of NAD′ that may help stabilize binding of a 2′ phosphate in NADP^+. A series of mutations were made altering residues D34, L35, and T36 of SEQ ID NO:6. The kinetics and specificity of the best enzyme, a D34A/L35R/T36K triple mutant (herein referred to as mGap), were obtained.

Sequence of G. stearothermophilus glyceraldehyde-3-phosphate dehydrogenase (GsGap, gapDH WT), wild type, SEQ ID NO:6 (P00362 whole entry): as the sequence (P00362 whole entry D34A/L35R/T36K) above, with A34D, R35L, K36T counted along it

Q: `NC(=O)c1ccc[n+]([C@@H]2O[C@H](COP(=O)([O-])OP(=O)(O)OC[C@H]3O[C@@H](n4cnc5c(N)ncnc54)[C@H](O)[C@@H]3O)[C@@H](O)[C@H]2O)c1` [NAD+, nicotinamide adenine dinucleotide] was tested. Which Km [1] did it give?
A: 1.5 ± 0.3 mM

Q: And the kcat ([2]; cofactor varied)?
A: 0.2 ± 0.04 µM/min/mg

Q: And the Km ([2]; cofactor)?
A: 600 ± 400 µM

— patent USRE50957E1, “Molecular rheostat for cofactor balance” (The Regents of the University of California, priority 2016, dated 2026)
